Reference: patent publication US10189841B2, “Purinones as ubiquitin-specific protease 1 inhibitors” (Forma Therapeutics, Inc., priority 2015, dated 2019)

Biological target: USP1 (construct USP1 (I-785, GG670, 671AA)/UAF1 (I-677)-Flag) (Homo sapiens (Human), UniProt O94782, G670A/G671A)
Assay: Ubiquitin-Rhodamine 110 assay for USP1 activity
Type: biochemical
Conditions: USP1/UAF1 25 pM, Ub-Rh110 25 nM, 30 min preincubation
Outline: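 Two formats with the USP1/UAF1 complex and 25 nM ubiquitin-rhodamine 110 in pH 8.0 Tris buffer with calcium, glutathione and detergent. Single-point screening used 10 µM, 100 pM enzyme and 45 min. Inhibition was set against no-enzyme and DMSO wells.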

USP1 (construct USP1 (I-785, GG670, 671AA)/UAF1 (I-677)-Flag), sequence (O94782 whole entry G670A/G671A): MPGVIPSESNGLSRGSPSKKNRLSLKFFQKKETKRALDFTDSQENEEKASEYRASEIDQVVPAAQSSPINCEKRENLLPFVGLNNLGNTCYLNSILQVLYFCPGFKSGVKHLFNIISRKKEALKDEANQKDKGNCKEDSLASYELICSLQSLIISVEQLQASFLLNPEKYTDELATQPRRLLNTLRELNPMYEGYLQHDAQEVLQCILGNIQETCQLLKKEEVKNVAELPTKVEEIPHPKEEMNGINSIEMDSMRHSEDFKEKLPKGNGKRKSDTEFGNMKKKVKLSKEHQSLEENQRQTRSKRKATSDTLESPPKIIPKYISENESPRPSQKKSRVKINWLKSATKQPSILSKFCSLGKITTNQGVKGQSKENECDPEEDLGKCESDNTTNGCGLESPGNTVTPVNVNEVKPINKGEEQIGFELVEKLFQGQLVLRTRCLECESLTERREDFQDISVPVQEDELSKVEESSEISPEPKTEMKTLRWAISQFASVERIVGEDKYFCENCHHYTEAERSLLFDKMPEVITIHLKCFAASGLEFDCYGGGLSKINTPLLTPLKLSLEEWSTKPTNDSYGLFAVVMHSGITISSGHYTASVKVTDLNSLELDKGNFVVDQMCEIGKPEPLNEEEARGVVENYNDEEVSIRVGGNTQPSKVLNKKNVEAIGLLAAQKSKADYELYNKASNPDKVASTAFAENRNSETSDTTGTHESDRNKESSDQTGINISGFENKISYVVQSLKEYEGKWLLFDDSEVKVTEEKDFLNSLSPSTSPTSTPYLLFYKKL
USP1 (construct USP1 (I-785, GG670, 671AA)/UAF1 (I-677)-Flag), sequence (Q8TAF3 whole entry partner): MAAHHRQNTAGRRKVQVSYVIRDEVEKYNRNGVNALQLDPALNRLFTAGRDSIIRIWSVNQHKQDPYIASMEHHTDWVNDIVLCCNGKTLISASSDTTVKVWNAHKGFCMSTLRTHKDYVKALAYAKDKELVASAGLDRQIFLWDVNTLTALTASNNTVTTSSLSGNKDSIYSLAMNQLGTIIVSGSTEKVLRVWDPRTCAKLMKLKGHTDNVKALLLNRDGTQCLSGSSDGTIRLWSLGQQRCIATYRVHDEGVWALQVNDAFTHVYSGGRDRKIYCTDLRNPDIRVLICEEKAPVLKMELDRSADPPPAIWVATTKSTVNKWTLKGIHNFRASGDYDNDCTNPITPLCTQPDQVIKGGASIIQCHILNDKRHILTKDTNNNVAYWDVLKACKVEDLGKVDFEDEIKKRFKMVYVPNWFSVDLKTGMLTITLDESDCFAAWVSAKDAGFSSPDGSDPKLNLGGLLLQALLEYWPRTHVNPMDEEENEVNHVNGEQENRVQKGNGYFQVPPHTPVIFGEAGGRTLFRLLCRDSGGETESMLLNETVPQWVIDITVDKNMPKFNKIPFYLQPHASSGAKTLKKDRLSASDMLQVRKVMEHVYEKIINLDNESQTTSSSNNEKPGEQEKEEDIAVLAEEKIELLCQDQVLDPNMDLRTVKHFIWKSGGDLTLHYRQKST

SMILES: Cc1c(-c2ccc(Cn3c(=O)[nH]c4cnc(-c5ccccc5C(C)C)nc43)cc2)cnn1C [Compound I-252, 9-(4-(1,5-dimethyl-1H-pyrazol-4-yl)benzyl)-2-(2-isopropylphenyl)-7,9-dihydro-8H-purin-8-one]
- IC50: 50 to 200 nM

SMILES: Cc1noc(C)c1-c1ccc(Cn2c(=O)[nH]c3cnc(-c4ccccc4C(C)C)nc32)cc1 [Compound I-253, 9-(4-(3,5-dimethylisoxazol-4-yl)benzyl)-2-(2-isopropylphenyl)-7,9-dihydro-8H-purin-8-one]
- IC50: 200 to 2000 nM

SMILES: CC(C)c1ccccc1-c1ncc2[nH]c(=O)n(Cc3ccc(-c4cnn(C)c4CC(=O)O)cc3)c2n1 [Compound I-254, 2-(4-(4-((2-(2-isopropylphenyl)-8-oxo-7,8-dihydro-9H-purin-9-yl)methyl)phenyl)-1-methyl-1H-pyrazol-5-yl)acetic acid]
- IC50: > 2000 nM

SMILES: CC(C)c1ccccc1-c1ncc2[nH]c(=O)n(Cc3ccc(-c4ncccn4)cc3)c2n1 [Compound I-255, 2-(2-isopropylphenyl)-9-(4-(pyrimidin-2-yl)benzyl)-7,9-dihydro-8H-purin-8-one]
- IC50: 50 to 200 nM

SMILES: CC(C)c1ccccc1-c1ncc2[nH]c(=O)n(Cc3ccc(-c4ccnn4C)cc3)c2n1 [Compound I-256, 2-(2-isopropylphenyl)-9-(4-(1-methyl-1H-pyrazol-5-yl)benzyl)-7,9-dihydro-8H-purin-8-one]
- IC50: < 50 nM

SMILES: CC(C)c1ccccc1-c1ncc2c(n1)n(Cc1ccc(-c3nccn3C)cc1)c(=O)n2C [Compound I-257, 2-(2-isopropylphenyl)-7-methyl-9-(4-(1-methyl-1H-imidazol-2-yl)benzyl)-7,9-dihydro-8H-purin-8-one]
- IC50: < 50 nM

SMILES: Cc1cn(C)c(-c2ccc(Cn3c(=O)n(C)c4cnc(-c5ccccc5C(C)C)nc43)cc2)n1 [Compound I-258, 9-(4-(1,4-dimethyl-1H-imidazol-2-yl)benzyl)-2-(2-isopropylphenyl)-7-methyl-7,9-dihydro-8H-purin-8-one]
- IC50: < 50 nM

SMILES: CC(C)c1ccccc1-c1ncc2c(n1)n(Cc1ccc(-c3ccccc3OCCN(C)C)cc1)c(=O)n2C [Compound I-259, 9-((2′-(2-(dimethylamino)ethoxy)-[1,1′-biphenyl]-4-yl)methyl)-2-(2-isopropylphenyl)-7-methyl-7,9-dihydro-8H-purin-8-one]
- IC50: < 50 nM

SMILES: CC(C)c1ccccc1-c1ncc2c(n1)n(Cc1ccc(-c3cccc(OCCN(C)C)c3)cc1)c(=O)n2C [Compound I-260, 9-((3′-(2-(dimethylamino)ethoxy)-[1,1′-biphenyl]-4-yl)methyl)-2-(2-isopropylphenyl)-7-methyl-7,9-dihydro-8H-purin-8-one]
- IC50: 50 to 200 nM

SMILES: CC(C)c1ccccc1-c1ncc2c(n1)n(Cc1ccc(-c3ccc(OCCN(C)C)cc3)cc1)c(=O)n2C [Compound I-261, 9-((4′-(2-(dimethylamino)ethoxy)-[1,1′-biphenyl]-4-yl)methyl)-2-(2-isopropylphenyl)-7-methyl-7,9-dihydro-8H-purin-8-one]
- IC50: 50 to 200 nM

SMILES: CC(C)c1ccccc1-c1ncc2c(n1)n(Cc1ccc(-c3ccc(CCN(C)C)cc3)cc1)c(=O)n2C [Compound I-262, 9-((4′-(2-(dimethylamino)ethyl)-[1,1′-biphenyl]-4-yl)methyl)-2-(2-isopropylphenyl)-7-methyl-7,9-dihydro-8H-purin-8-one]
- IC50: 50 to 200 nM

SMILES: CC(C)c1ccccc1-c1ncc2c(n1)n(Cc1ccc(-c3cc(N4CCOCC4)ncn3)cc1)c(=O)n2C [Compound I-263, 2-(2-isopropylphenyl)-7-methyl-9-(4-(6-morpholinopyrimidin-4-yl)benzyl)-7,9-dihydro-8H-purin-8-one]
- IC50: 200 to 2000 nM

SMILES: CC(C)c1ccccc1-c1ncc2c(n1)n(Cc1ccc(-c3cncn3C)cc1)c(=O)n2C [Compound I-264, 2-(2-isopropylphenyl)-7-methyl-9-(4-(1-methyl-1H-imidazol-5-yl)benzyl)-7,9-dihydro-8H-purin-8-one]
- IC50: 50 to 200 nM

SMILES: CC(C)c1ccccc1-c1ncc2c(n1)n(Cc1ccc(-c3cnn4c3COCC4)cc1)c(=O)n2C [Compound I-265, 9-(4-(6,7-dihydro-4H-pyrazolo[5,1-c][1,4]oxazin-3-yl)benzyl)-2-(2-isopropylphenyl)-7-methyl-7,9-dihydro-8H-purin-8-one]
- IC50: 200 to 2000 nM

SMILES: CC(C)c1ccccc1-c1ncc2c(n1)n(Cc1ccc(-c3cccc4ncnn34)cc1)c(=O)n2C [Compound I-266, 9-(4-([1,2,4]triazolo[1,5-a]pyridin-5-yl)benzyl)-2-(2-isopropylphenyl)-7-methyl-7,9-dihydro-8H-purin-8-one]
- IC50: 50 to 200 nM

SMILES: CC(C)c1ccccc1-c1ncc2c(n1)n(Cc1ccc(-c3cccc4cnoc34)cc1)c(=O)n2C [Compound I-267, 9-(4-(benzo[d]isoxazol-7-yl)benzyl)-2-(2-isopropylphenyl)-7-methyl-7,9-dihydro-8H-purin-8-one]
- IC50: 200 to 2000 nM

SMILES: CC(C)c1ccccc1-c1ncc2c(n1)n(Cc1ccc(-c3cccc4cn[nH]c34)cc1)c(=O)n2C [Compound I-268, 9-(4-(1H-indazol-7-yl)benzyl)-2-(2-isopropylphenyl)-7-methyl-7,9-dihydro-8H-purin-8-one]
- IC50: 50 to 200 nM

SMILES: CC(C)c1ccccc1-c1ncc2c(n1)n(Cc1ccc(-c3cccn4ccnc34)cc1)c(=O)n2C [Compound I-269, 9-(4-(imidazo[1,2-a]pyridin-8-yl)benzyl)-2-(2-isopropylphenyl)-7-methyl-7,9-dihydro-8H-purin-8-one]
- IC50: < 50 nM

SMILES: CC(C)c1ccccc1-c1ncc2c(n1)n(Cc1ccc(-c3cccc4nccn34)cc1)c(=O)n2C [Compound I-270, 9-(4-(imidazo[1,2-a]pyridin-5-yl)benzyl)-2-(2-isopropylphenyl)-7-methyl-7,9-dihydro-8H-purin-8-one]
- IC50: 200 to 2000 nM

SMILES: CC(C)c1ccccc1-c1ncc2c(n1)n(Cc1ccc(-c3cn(C)cn3)cc1)c(=O)n2C [Compound I-271, 2-(2-isopropylphenyl)-7-methyl-9-(4-(1-methyl-1H-imidazol-4-yl)benzyl)-7,9-dihydro-8H-purin-8-one]
- IC50: < 50 nM

SMILES: CC(C)c1ccccc1-c1ncc2c(n1)n(Cc1ccc(-c3ncn(C)n3)cc1)c(=O)n2C [Compound I-272, 2-(2-isopropylphenyl)-7-methyl-9-(4-(1-methyl-1H-1,2,4-triazol-3-yl)benzyl)-7,9-dihydro-8H-purin-8-one]
- IC50: 50 to 200 nM

SMILES: CC(C)c1ccccc1-c1ncc2[nH]c(=O)n(Cc3ccc(-c4cn(C)cn4)cc3)c2n1 [Compound I-273, 2-(2-isopropylphenyl)-9-(4-(1-methyl-1H-imidazol-4-yl)benzyl)-7,9-dihydro-8H-purin-8-one]
- IC50: < 50 nM

SMILES: CC(C)c1ccccc1-c1ncc2[nH]c(=O)n(Cc3ccc(-c4ncn(C)n4)cc3)c2n1 [Compound I-274, 2-(2-isopropylphenyl)-9-(4-(1-methyl-1H-1,2,4-triazol-3-yl)benzyl)-7,9-dihydro-8H-purin-8-one]
- IC50: 50 to 200 nM

SMILES: CC(C)c1ccccc1-c1ncc2[nH]c(=O)n(Cc3ccc(-c4cn(C(C)C)cn4)cc3)c2n1 [Compound I-275, 9-(4-(1-isopropyl-1H-imidazol-4-yl)benzyl)-2-(2-isopropylphenyl)-7,9-dihydro-8H-purin-8-one]
- IC50: < 50 nM

SMILES: Cc1nc(-c2ccc(Cn3c(=O)n(C)c4cnc(-c5ccccc5C(C)C)nc43)cc2)cn1C [Compound I-276, 9-(4-(1,2-dimethyl-1H-imidazol-4-yl)benzyl)-2-(2-isopropylphenyl)-7-methyl-7,9-dihydro-8H-purin-8-one]
- IC50: < 50 nM

SMILES: CC(C)c1ccccc1-c1ncc2c(n1)n(Cc1ccc(-c3cn(C(C)C)cn3)cc1)c(=O)n2C [Compound I-277, 9-(4-(1-isopropyl-1H-imidazol-4-yl)benzyl)-2-(2-isopropylphenyl)-7-methyl-7,9-dihydro-8H-purin-8-one]
- IC50: < 50 nM

SMILES: CC(C)c1ccccc1-c1ncc2c(n1)n(Cc1ccc(-c3nc(C(N)=O)n(C)n3)cc1)c(=O)n2C [Compound I-278, 3-(4-((2-(2-isopropylphenyl)-7-methyl-8-oxo-7,8-dihydro-9H-purin-9-yl)methyl)phenyl)-1-methyl-1H-1,2,4-triazole-5-carboxamide]
- IC50: 50 to 200 nM

SMILES: Cc1nc(-c2ccc(Cn3c(=O)n(C)c4cnc(-c5ccccc5C(C)C)nc43)cc2)nn1C [Compound I-279, 9-(4-(1,5-dimethyl-1H-1,2,4-triazol-3-yl)benzyl)-2-(2-isopropylphenyl)-7-methyl-7,9-dihydro-8H-purin-8-one]
- IC50: < 50 nM

SMILES: CC(C)c1ccccc1-c1ncc2c(n1)n(Cc1ccc(-c3nc(C(F)(F)F)n(C)n3)cc1)c(=O)n2C [Compound I-280, 2-(2-isopropylphenyl)-7-methyl-9-(4-(1-methyl-5-(trifluoromethyl)-1H-1,2,4-triazol-3-yl)benzyl)-7,9-dihydro-8H-purin-8-one]
- IC50: < 50 nM

SMILES: COc1nc(-c2ccc(Cn3c(=O)n(C)c4cnc(-c5ccccc5C(C)C)nc43)cc2)nn1C [Compound I-281, 2-(2-isopropylphenyl)-9-(4-(5-methoxy-1-methyl-1H-1,2,4-triazol-3-yl)benzyl)-7-methyl-7,9-dihydro-8H-purin-8-one]
- IC50: < 50 nM

SMILES: CC(C)c1ccccc1-c1ncc2c(n1)n(Cc1ccc(-c3nc(N4CCOCC4)n(C)n3)cc1)c(=O)n2C [Compound I-282, 2-(2-isopropylphenyl)-7-methyl-9-(4-(1-methyl-5-morpholino-1H-1,2,4-triazol-3-yl)benzyl)-7,9-dihydro-8H-purin-8-one]
- IC50: 50 to 200 nM

SMILES: Cc1nc(-c2ccc(Cn3c(=O)n(C)c4cnc(-c5ccccc5C(C)C)nc43)cc2)n(C)n1 [Compound I-283, 9-(4-(1,3-dimethyl-1H-1,2,4-triazol-5-yl)benzyl)-2-(2-isopropylphenyl)-7-methyl-7,9-dihydro-8H-purin-8-one]
- IC50: < 50 nM

SMILES: CC(C)c1ccccc1-c1ncc2c(n1)n(Cc1ccc(-c3ccnn3C(C)C)cc1)c(=O)n2C [Compound I-284, 9-(4-(1-isopropyl-1H-pyrazol-5-yl)benzyl)-2-(2-isopropylphenyl)-7-methyl-7,9-dihydro-8H-purin-8-one]
- IC50: 200 to 2000 nM
